The source of these data is ChEMBL document CHEMBL5385907, “Proline-Hinged α-Helical Peptides Sensitize Gram-Positive Antibiotics, Expanding Their Physicochemical Properties to Be Used as Gram-Negative Antibiotics” (J Med Chem, 2024).

The MIC is the smallest concentration in the dilution series that meets the test's criterion for growth inhibition.

The source made the active and inactive calls. Residues, ends and D or L forms follow the SMILES beside them. Bounds are passed on as bounds.

Series [1] concerns Escherichia coli. Description: Antibacterial activity against Escherichia coli ATCC 25922 assessed as inhibition of bacterial growth incubated for 18 hrs by two fold serial dilution assay. It is filed as functional.
For series [2], the system named is Acinetobacter baumannii. Description: Antibacterial activity against Acinetobacter baumannii ATCC 17978 assessed as inhibition of bacterial growth incubated for 18 hrs by two fold serial dilution assay. The format is functional.
Series [3] has as its system Klebsiella pneumoniae. Nature of the series: Antibacterial activity against Klebsiella pneumoniae ATCC 700603 assessed as inhibition of bacterial growth incubated for 18 hrs by two fold serial dilution assay. It is filed as functional.
Series [4] is described as follows: Hemolytic activity in human blood assessed as hemolysis incubated for 6 hrs by microplate reader analysis. It is filed as toxicity, tissue-based.
The nature of series [5]: Hydrophobicity of the compound assessed as retention time by reversed-phase HPLC analysis. It is filed as physicochemical.
For a further series, the system named is Lipopolysaccharide (LPS). Nature of the series: Displacement of BODIPY-TR-cadaverine from Escherichia coli O128:B12 LPS assessed as effective dose incubated for 1 hr by fluorescence microplate reader assay.
In series [6] the test system is Escherichia coli. Description: Antibacterial activity against Escherichia coli ATCC 25922 assessed as change in membrane fluidity incubated for 1 hr by generalized polarization assay. The format is functional, organism-based.
Series [7] relates to Escherichia coli. Nature of the series: Antibacterial activity against Escherichia coli ATCC 25922 assessed as bacterial growth inhibition incubated for 1 hr by propidium iodide staining based fluorescence assay. The format is functional, organism-based.
The nature of series [8]: Nephrotoxicity in Sprague-Dawley rat assessed as increase in blood urea nitrogen level at 30 mg/kg,iv administration for 1 hr and measured after 25 hrs. The format is toxicity, organism-based. Particulars: in vivo, 26 h.
Series [9] can be described thus: Nephrotoxicity in Sprague-Dawley rat assessed as increase in creatinine level at 30 mg/kg,iv administration for 1 hr and measured after 25 hrs. To be noted: in vivo, 26 h. The format is toxicity, organism-based.
Series [10] concerns Escherichia coli. Nature of the series: Potentiation of erythromycin induced antibacterial activity against Escherichia coli ATCC 25922 assessed as decrease in bacterial growth at 0.4 uM incubated for 18 hrs in presence of erythromycin by two fold serial dilution assay. The format is functional, organism-based.
Series [11] concerns Escherichia coli. Nature of the series: Potentiation of fusidic acid induced antibacterial activity against Escherichia coli ATCC 25922 assessed as decrease in bacterial growth at 0.4 uM incubated for 18 hrs in presence of fusidic acid by two fold serial dilution assay. It is filed as functional, organism-based.
Series [12] concerns Escherichia coli. Description: Potentiation of novobiocin induced antibacterial activity against Escherichia coli ATCC 25922 assessed as decrease in bacterial growth at 0.4 uM incubated for 18 hrs in presence of novobiocin by two fold serial dilution assay. It is filed as functional, organism-based.
For series [13], the system named is Acinetobacter baumannii. Nature of the series: Potentiation of erythromycin induced antibacterial activity against Acinetobacter baumannii ATCC 17978 assessed as decrease in bacterial growth at 0.4 uM incubated for 18 hrs in presence of erythromycin by two fold serial dilution assay. The format is functional, organism-based.
In series [14] the test system is Acinetobacter baumannii. Description: Potentiation of fusidic acid induced antibacterial activity against Acinetobacter baumannii ATCC 17978 assessed as decrease in bacterial growth at 0.4 uM incubated for 18 hrs in presence of fusidic acid by two fold serial dilution assay. It is filed as functional, organism-based.
The test system of series [15] is Acinetobacter baumannii. Nature of the series: Potentiation of novobiocin induced antibacterial activity against Acinetobacter baumannii ATCC 17978 assessed as decrease in bacterial growth at 0.4 uM incubated for 18 hrs in presence of novobiocin by two fold serial dilution assay. The format is functional, organism-based.
Series [16] concerns Klebsiella pneumoniae. Description: Potentiation of erythromycin induced antibacterial activity against Klebsiella pneumoniae ATCC 700603 assessed as decrease in bacterial growth at 0.4 uM incubated for 18 hrs in presence of erythromycin by two fold serial dilution assay. It is filed as functional, organism-based.
Series [17] relates to Klebsiella pneumoniae. Nature of the series: Potentiation of fusidic acid induced antibacterial activity against Klebsiella pneumoniae ATCC 700603 assessed as decrease in bacterial growth at 0.4 uM incubated for 18 hrs in presence of fusidic acid by two fold serial dilution assay. The format is functional, organism-based.
Series [18] deals with Klebsiella pneumoniae. Nature of the series: Potentiation of novobiocin induced antibacterial activity against Klebsiella pneumoniae ATCC 700603 assessed as decrease in bacterial growth at 0.4 uM incubated for 18 hrs in presence of novobiocin by two fold serial dilution assay. The format is functional, organism-based.
For series [19], the system named is Escherichia coli. Nature of the series: Potentiation of rifampicin induced antibacterial activity against NDM1-producing carbapenem-resistant Escherichia coli infected CD1 mouse sepsis model assessed as reduction in bacterial colony forming unit in blood at 10 mg/kg,SC administrated after 2 hrs of post-infection in presence of rifampicin. The format is functional.

Series [20] concerns Escherichia coli. Description: Potentiation of rifampicin induced antibacterial activity against NDM1-producing carbapenem-resistant Escherichia coli infected CD1 mouse sepsis model assessed as reduction in bacterial colony forming unit in blood at 10 mg/kg,SC administrated after 6 hrs of post-infection in presence of rifampicin. The format is functional.

As to `CCCCCCCC(=O)N[C@@H](CCCCN)C(=O)N[C@@H](CCCCN)C(=O)N[C@@H](C)C(=O)N[C@@H](C)C(=O)N[C@@H](CCCCN)C(=O)N[C@@H](C)C(=O)N[C@@H](C)C(=O)N[C@@H](CCCCN)C(=O)N[C@@H](CCCCN)C(=O)N1CCC[C@H]1C(=O)N[C@@H](C)C(=O)N[C@@H](CCCCN)C(=O)N[C@@H](C)C(=O)N[C@@H](C)C(=O)N[C@@H](CCCCN)C(N)=O` (HELM PEPTIDE1{[CCCCCCCC(=O)[*:2]].K.K.A.A.K.A.A.K.K.P.A.K.A.A.K.[am]}$$$$V2.0), the MIC in the series on Escherichia coli [1], in the series on Acinetobacter baumannii [2] and in the series with Klebsiella pneumoniae [3] was greater than 80 µM in each case. Besides, the MHC10 in series [4] is greater than 160 µM. In addition, in [5], the Retention_time was found to be 13.7 min. The ED50 entry in the series with Lipopolysaccharide (LPS) is “inactive”.

In the case of POLYMYXIN B, the result in the series with Escherichia coli [6] and in the series with Escherichia coli [7] was Active.

Turning to COLISTIN, the results for the Activity in [8] and in [9] were 30 mg/dL and 0.74 mg/dL, respectively.

On to Ac-KKLAKLLKKPLKLLK-NH2, for which the MIC with Escherichia coli [1] was greater than 80 µM; in the series on Acinetobacter baumannii [2], 80 µM; in the series on Klebsiella pneumoniae [3], greater than 80 µM. Further, in series [4], the MHC10 is greater than 160 µM. The Retention_time in series [5] came out at 17.1 min. The outcome in the series with Escherichia coli [10], in the series on Escherichia coli [11], with Escherichia coli [12], with Acinetobacter baumannii [13], in the series on Acinetobacter baumannii [14] and in the series with Acinetobacter baumannii [15] was Active. The outcome with Klebsiella pneumoniae [16], in the series with Klebsiella pneumoniae [17] and in the series with Klebsiella pneumoniae [18] was Active.

Ac-KLLKLLKKPLKLLK-NH2: the MIC in the series on Escherichia coli [1] was greater than 80 µM; with Acinetobacter baumannii [2], 80 µM; in the series on Klebsiella pneumoniae [3] it was greater than 80 µM. Besides, the MHC10 in [4] was greater than 160 µM. For the same compound, the Retention_time in [5] is 18.8 min. Besides, the Activity in the series with Escherichia coli [19] and in the series on Escherichia coli [20] was greater than 3 log10CFU each time.

For Ac-KALLKLLKKPLKLLK-NH2, the MIC was greater than 80 µM in the series with Escherichia coli [1], 20 µM in the series with Acinetobacter baumannii [2] and greater than 80 µM in the series on Klebsiella pneumoniae [3]. Moreover, the MHC10 in series [4] was greater than 160 µM. Besides, the Retention_time in series [5] was 19.4 min. For the same compound, the outcome in the series with Escherichia coli [10], with Escherichia coli [11], in the series with Escherichia coli [12], in the series with Acinetobacter baumannii [13], in the series on Acinetobacter baumannii [14] and in the series on Acinetobacter baumannii [15] was Active. For the same compound, the outcome in the series on Klebsiella pneumoniae [16], in the series on Klebsiella pneumoniae [17] and in the series on Klebsiella pneumoniae [18] was Active.

With Ac-KKLLALLKKPLKLLK-NH2, the MIC was determined as 80 µM in the series on Escherichia coli [1], 20 µM in the series on Acinetobacter baumannii [2] and 80 µM in the series on Klebsiella pneumoniae [3]. Further, in [4], the MHC10 was greater than 160 µM. Also, the Retention_time in [5] was 19.4 min. Further, the result with Escherichia coli [10], with Escherichia coli [11], in the series on Escherichia coli [12], in the series on Acinetobacter baumannii [13], with Acinetobacter baumannii [14] and with Acinetobacter baumannii [15] was Active. Further, the outcome with Klebsiella pneumoniae [16], with Klebsiella pneumoniae [17] and in the series with Klebsiella pneumoniae [18] was Active.

Turning to Ac-KKLLKLLKKPLALLK-NH2, the MIC in the series on Escherichia coli [1] is greater than 80 µM; with Acinetobacter baumannii [2], 20 µM; in the series with Klebsiella pneumoniae [3], greater than 80 µM. Moreover, the MHC10 in series [4] is greater than 160 µM. The Retention_time in series [5] is given as 19.6 min. For the same compound, the outcome in the series on Escherichia coli [10], in the series with Escherichia coli [11], in the series with Escherichia coli [12], in the series with Acinetobacter baumannii [13], in the series with Acinetobacter baumannii [14] and in the series on Acinetobacter baumannii [15] was Active. The outcome in the series on Klebsiella pneumoniae [16], with Klebsiella pneumoniae [17] and with Klebsiella pneumoniae [18] was Active.
